From ChEMBL document CHEMBL1201862, “PubChem BioAssay data set” (2004)
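These data come from cells grown in 96-well plates and exposed to compound for 48 hours at five concentrations. The concentration for 50% growth inhibition is given as GI50.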 Activity calls are given as the source filed them. Cut-off read from the data, not from the text of the source: active = GI50 up to about 1.1 µM and inactive = higher.

What was measured:
Assay in all cases: NCI-60 cell line screen, 48 h
A549 = system: A549
DMS-114 = system: DMS-114
LXFL 529 = system: LXFL 529
SK-OV-3 = system: SK-OV-3
K562 = system: K562
CAKI-1 = system: CAKI-1
OVCAR-5 = system: OVCAR-5
SF-539 = system: SF-539
OVCAR-4 = system: OVCAR-4
LOX IMVI = system: LOX IMVI
TK-10 = system: TK-10
SW-620 = system: SW-620
SF-295 = system: SF-295
SK-MEL-28 = system: SK-MEL-28
OVCAR-3 = system: OVCAR-3
HCT-116 = system: HCT-116

Measured: GI50

O=c1[nH]c(=O)n(C2CC(O)C(CO)O2)cc1/C=C/Br (stereo not drawn)
inactive: A549 > 100 µM | DMS-114 > 100 µM | LXFL 529 > 100 µM | SK-OV-3 > 100 µM | K562 > 100 µM | CAKI-1 > 100 µM | OVCAR-5 > 100 µM | SF-539 > 100 µM | OVCAR-4 > 100 µM | LOX IMVI > 100 µM | TK-10 > 100 µM | SW-620 > 100 µM | SF-295 > 100 µM | SK-MEL-28 > 100 µM

CCOC(=O)C1C(=S)NC(=O)C1C#N (stereo not drawn)
inactive: A549 > 100 µM | DMS-114 > 100 µM | LXFL 529 > 100 µM | SK-OV-3 > 100 µM | K562 > 100 µM | CAKI-1 > 100 µM | OVCAR-5 > 100 µM | OVCAR-3 > 100 µM | SF-539 > 100 µM | OVCAR-4 > 100 µM | LOX IMVI > 100 µM | TK-10 > 100 µM | SW-620 > 100 µM | SF-295 > 100 µM | SK-MEL-28 > 100 µM

C/C(=N\NC(N)=S)c1ccc2c(c1)OCO2
inactive: A549 > 100 µM | DMS-114 94.8 µM | LXFL 529 > 100 µM | HCT-116 > 100 µM | SK-OV-3 > 100 µM | K562 > 100 µM | CAKI-1 > 100 µM | OVCAR-5 > 100 µM | OVCAR-3 > 100 µM | SF-539 > 100 µM | LOX IMVI > 100 µM | TK-10 > 100 µM | SW-620 > 100 µM | SF-295 > 100 µM | SK-MEL-28 > 100 µM

O=C(c1c(O)cc(O)cc1O)C1Cc2ccccc21 (stereo not drawn)
inactive: A549 91.6 µM | DMS-114 > 100 µM | LXFL 529 > 100 µM | HCT-116 86.5 µM | SK-OV-3 > 100 µM | K562 68.1 µM | CAKI-1 39.5 µM | OVCAR-5 > 100 µM | SF-539 32.2 µM | OVCAR-4 30.4 µM | LOX IMVI > 100 µM | TK-10 > 100 µM | SW-620 > 100 µM | SF-295 42.3 µM

Fc1ccccc1C1SCc2nc3ccccc3n21 (stereo not drawn)
inactive: A549 36.5 µM | DMS-114 24.4 µM | LXFL 529 37.6 µM | HCT-116 38.5 µM | SK-OV-3 34.8 µM | K562 16.3 µM | CAKI-1 44.8 µM | OVCAR-5 41.5 µM | OVCAR-3 38.4 µM | SF-539 > 100 µM | TK-10 > 100 µM | SW-620 > 100 µM | SF-295 41.8 µM | SK-MEL-28 > 100 µM

CSc1c(C)c(C)nn1-c1ccccc1
inactive: A549 > 100 µM | DMS-114 > 100 µM | LXFL 529 > 100 µM | SK-OV-3 > 100 µM | K562 > 100 µM | CAKI-1 > 100 µM | OVCAR-5 > 100 µM | SF-539 > 100 µM | OVCAR-4 > 100 µM | LOX IMVI > 100 µM | TK-10 > 100 µM | SW-620 > 100 µM | SF-295 > 100 µM | SK-MEL-28 > 100 µM

O=C(Cc1nc2ccccc2s1)Nc1ccc(Cl)cc1
inactive: A549 97.9 µM | LXFL 529 44.2 µM | HCT-116 > 100 µM | SK-OV-3 > 100 µM | K562 38.9 µM | CAKI-1 > 100 µM | OVCAR-5 > 100 µM | OVCAR-3 > 100 µM | SF-539 > 100 µM | OVCAR-4 > 100 µM | LOX IMVI 60.8 µM | TK-10 > 100 µM | SW-620 > 100 µM | SF-295 55.6 µM | SK-MEL-28 > 100 µM

CC(C)(C)OC1=C(OC(C)(C)C)C(O)(c2ccccc2)C1=O (stereo not drawn)
inactive: A549 > 100 µM | DMS-114 > 100 µM | LXFL 529 > 100 µM | SK-OV-3 > 100 µM | K562 > 100 µM | OVCAR-5 > 100 µM | OVCAR-3 > 100 µM | SF-539 > 100 µM | OVCAR-4 > 100 µM | LOX IMVI > 100 µM | TK-10 > 100 µM | SW-620 > 100 µM | SF-295 > 100 µM | SK-MEL-28 > 100 µM

CCN(CC)CCCC(C)Nc1c(Sc2cnc3cc(Cl)ccc3c2NC(C)CCCN(CC)CC)cnc2cc(Cl)ccc12 (stereo not drawn)
inactive: A549 1.68 µM | LXFL 529 1.92 µM | HCT-116 1.37 µM | SK-OV-3 1.66 µM | K562 1.55 µM | CAKI-1 1.53 µM | OVCAR-5 1.73 µM | OVCAR-3 1.9 µM | OVCAR-4 1.73 µM | LOX IMVI 1.78 µM | TK-10 1.79 µM | SW-620 1.58 µM | SK-MEL-28 1.86 µM
